Experimental data from patent US20240366612A1, “COMPOUNDS AND METHODS FOR MODULATING NUCLEIC ACID SPLICING” (REMIX THERAPEUTICS INC., priority 2021, published 2024).
Structures can show the parent of a compound that is named as a salt.

How the values were obtained:
[1] = Cell Titer Glo 2.0 cell viability assay; conditions: human, K562 cells
Experimental: Compounds described herein were screened for toxicity in K562 (human chronic myelogenous leukemia) cells using a Cell Titer Glo 2.0 assay.
• Promega CellTiter-Gbo® 2.0 Cell Viability Assay (cat #G9241) • Corning 384-well TC-treated microplates (cat #3570)
Cells were plated at 500 cells/well (K562 cells) in 45 μL of IMDM supplemented with 10% FBS in a 384-well opaque plate. Wells containing only medium were used as a blank control. Test compounds (e.g., compounds of Formula (I), (II), and (III)) were first serially diluted in DMSO then diluted 1:100 with IMDM+10% FBS. The final concentration of DMSO was 0.1% in each well. The cells were incubated for 72 hours at 37° C. and 5% CO2 before assaying with Cell Titer Glo 2.0 reagent.

[2] = tested on: HiBiT-tagged HTT protein in K562 cells; assay: HiBiT protein abundance assay, HTT; assay type: cell-based, human; conditions: HiBiT-modified K562 cells, 24 hours, luminescence
Experimental: (§1) Compounds described herein were used to screen for effects on quantitative protein abundance using a HiBit assay system (Promega). Quantitative protein abundance was determined by measuring the protein levels of HiBit-tagged protein targets expressed in cell culture via luminescence using the Nano-Glo HiBiT Lytic Detection System, which uses a split complementation assay format to reconstitute NanoBiT enzyme to generate a luminescent signal. A protein abundance assay was developed such that endogenous protein targets could be modified with the HiBiT peptide tag and their abundance could be assessed after compound treatment. Briefly, K562 cell lines containing a HiBiT-modification were treated with various compounds described herein (e.g., compounds of Formulas (I), (II), or (III)). After treatment for 24 hours, the protein abundance of a specific target was determined by measuring luminescence.
(§2) • Promega Nano-Glo HiBiT Lytic Detection System (cat #N3030) • Corning 384-well TC-treated microplates (cat #3570) • Synthego Engineered Cells Knock-In Clones
(§3) Cells were maintained in IMDM with 10% FBS. Before the assay, cells were diluted with […] growth media (IMDM+1% FBS media) and were seeded in a 384-well plate at a density of 10000 cells/well (for each cell line listed in Table 5). Each compound was prepared as a 10-point 3-fold serial dilution in DMSO with the top dose at a final concentration of 10 μM in the well. Unmodified K562 cells were added at the previously specified density with DMSO to serve as an assay baseline and positive control (PC) and DMSO only with the respective modified cell lines was added to the negative control (NC) columns. Final DMSO concentration was kept at or below 0.25%. Treated cell plates were placed in an incubator at 37° C. with 5% CO2 for 24 hours. After 24 hours, 25 μL of Complete HiBit Lytic reagent was added to each well at room temperature (e.g. one plate requiring 10 mL Lytic Buffer, 100 μL LgBiT Protein, 200 μL Lytic Substrate), shaken for 5 minutes at 600 RPM, then left to sit for 10 minutes for signal to stabilize before reading on a Spark Cyto plate reader (Tecan) with a 500 ms measurement time.
(§4) To determine compound effects on protein abundance of each target in Table 5, the percent response for each respective cell line was calculated at each compound concentration as follows:
(§5) For the normalized response at each concentration, a four-parameter logistical regression was fit to the data and the response was interpolated at the 50% value to determine a concentration for protein abundance at 50% (IC50) the untreated control.

[3] = tested on: HiBiT-tagged Target C protein in K562 cells; assay: HiBiT protein abundance assay, Target C; assay type: cell-based, human; conditions: HiBiT-modified K562 cells, 24 hours, luminescence
Experimental: as §1, §2, §3, §4, §5

| SMILES | IC50 [2] | IC50 [3] | GI50 at 72 h [1] |
| --- | --- | --- | --- |
| Cc1cn2cc(-c3nc4ncn(C5CCNCC5)c(=O)c4s3)cc(F)c2n1 [Compound 232, 2-(8-fluoro-2-methylimidazo[1,2-a]pyridin-6-yl)-6-(piperidin-4-yl)thiazolo[4,5-d]pyrimidin-7(6H)-one] | < 100 nM | 100 to 1000 nM | 100 to 1000 nM |
| Cc1cc(-c2nc3ncn(C4CCNCC4)c(=O)c3s2)cc2cn(C)nc12 [Compound 233, 2-(2,7-dimethyl-2H-indazol-5-yl)-6-(piperidin-4-yl)thiazolo[4,5-d]pyrimidin-7(6H)-one] | < 100 nM | < 100 nM | 100 to 1000 nM |
| Cc1cn2cc(-c3cc4ncn(C5CCNCC5)c(=O)c4s3)cc(F)c2n1 [Compound 235, 6-(8-fluoro-2-methylimidazo[1,2-a]pyridin-6-yl)-3-(piperidin-4-yl)thieno[3,2-d]pyrimidin-4(3H)-one] | 100 to 1000 nM | 100 to 1000 nM | 100 to 1000 nM |
| Cc1cc(-c2cc3ncn(C4CCNCC4)c(=O)c3s2)cc2cn(C)nc12 [Compound 236, 6-(2,7-dimethyl-2H-indazol-5-yl)-3-(piperidin-4-yl)thieno[3,2-d]pyrimidin-4(3H)-one] | < 100 nM | 100 to 1000 nM | 100 to 1000 nM |
| Cc1cc(-c2cc3ncn(C4CCN(C)CC4)c(=O)c3s2)cc2cn(C)nc12 [Compound 237, 6-(2,7-dimethyl-2H-indazol-5-yl)-3-(1-methylpiperidin-4-yl)thieno[3,2-d]pyrimidin-4(3H)-one] | 100 to 1000 nM | 100 to 1000 nM | 100 to 1000 nM |
| Cc1cn2nc(-c3cc4ncn(C5CCNCC5)c(=O)c4s3)cc(C)c2n1 [Compound 238, 6-(2,8-dimethylimidazo[1,2-b]pyridazin-6-yl)-3-(piperidin-4-yl)thieno[3,2-d]pyrimidin-4(3H)-one] | 100 to 1000 nM | 1000 to 10000 nM | 1000 to 10000 nM |
| Cc1nc(-c2nc3ncn(C4CCNCC4)c(=O)c3s2)cc2cn(C)nc12 [Compound 251, 2-(2,7-dimethyl-2H-pyrazolo[3,4-c]pyridin-5-yl)-6-(piperidin-4-yl)thiazolo[4,5-d]pyrimidin-7(6H)-one] | 1000 to 10000 nM | > 10000 nM | 1000 to 10000 nM |
| Cc1cn2cc(-c3nc4sc(C5CCN(C)CC5)cc4c(=O)[nH]3)cc(F)c2n1 [Compound 256, 2-(8-fluoro-2-methylimidazo[1,2-a]pyridin-6-yl)-6-(1-methylpiperidin-4-yl)thieno[2,3-d]pyrimidin-4(3H)-one] | > 10000 nM | > 10000 nM | > 10000 nM |
| Cn1cc2cc(-c3cc4ncn(C5CCNCC5)c(=O)c4s3)cc(F)c2n1 [Compound 257] | 1000 to 10000 nM | 1000 to 10000 nM | 1000 to 10000 nM |
| Cn1cc2cc(-c3cc4ncn(C5CCNCC5)c(=O)c4s3)c(F)cc2n1 [Compound 258] | 100 to 1000 nM | 1000 to 10000 nM | 1000 to 10000 nM |
| COc1cc(-c2cc3ncn(C4CCNCC4)c(=O)c3s2)cnn1 [Compound 260] | 1000 to 10000 nM | 1000 to 10000 nM | 1000 to 10000 nM |
| Cc1cn2cc(-c3cc4ncn(C5CCNCC5)c(=O)c4s3)ncc2n1 [Compound 264] | 1000 to 10000 nM | 1000 to 10000 nM | 1000 to 10000 nM |
| Cc1cn2cc(-c3cc4ncn(C5CCN(C)CC5)c(=O)c4s3)cc(F)c2n1 [Compound 265, 6-{8-fluoro-2-methylimidazo[1,2-a]pyridin-6-yl}-3-(1-methylpiperidin-4-yl)thieno[3,2-d]pyrimidin-4-one] | 100 to 1000 nM | 100 to 1000 nM | 100 to 1000 nM |
| Cc1cn2nc(-c3nc4sc(N5CCNCC5)nc4c(=O)[nH]3)cc2c(C)n1 [Compound 267] | 100 to 1000 nM | 100 to 1000 nM | 100 to 1000 nM |
| Cc1cn2cc(-c3cc4ncn(C5CCNC5)c(=O)c4s3)cc(F)c2n1 (stereo not drawn) [Compound 270, 6-{8-fluoro-2-methylimidazo[1,2-a]pyridin-6-yl}-3-(pyrrolidin-3-yl)thieno[3,2-d]pyrimidin-4-one] | 100 to 1000 nM | 100 to 1000 nM | 100 to 1000 nM |
| Cc1nc(-c2cc3ncn(C4CCNCC4)c(=O)c3s2)cc2cn(C)nc12 [Compound 271] | 1000 to 10000 nM | 1000 to 10000 nM | 1000 to 10000 nM |
| Cc1cn2cc(-c3cc4ncn(C5CCNCC5(F)F)c(=O)c4s3)cc(F)c2n1 (stereo not drawn) [Compound 274, 3-(3,3-difluoropiperidin-4-yl)-6-{8-fluoro-2-methylimidazo[1,2-a]pyridin-6-yl}thieno[3,2-d]pyrimidin-4-one] | > 10000 nM | > 10000 nM | > 10000 nM |

The next lines start with results.

| IC50 [2] | IC50 [3] | SMILES | GI50 at 72 h [1] |
| --- | --- | --- | --- |
| 100 to 1000 nM | 100 to 1000 nM | Cc1cn2nc(-c3nc4ncn(C5CCNCC5)c(=O)c4s3)cc(C)c2n1 [Compound 231, 2-(2,8-dimethylimidazo[1,2-b]pyridazin-6-yl)-6-(piperidin-4-yl)thiazolo[4,5-d]pyrimidin-7(6H)-one] | 1000 to 10000 nM |
| 100 to 1000 nM | 100 to 1000 nM | Cc1cc(-c2nc3ncn(C4CCN(C)CC4)c(=O)c3s2)cc2cn(C)nc12 [Compound 234, 2-(2,7-dimethyl-2H-indazol-5-yl)-6-(1-methylpiperidin-4-yl)thiazolo[4,5-d]pyrimidin-7(6H)-one] | 100 to 1000 nM |
| 1000 to 10000 nM | > 10000 nM | Cc1cn2nc(-c3cc4ncn(C5CCN(C)CC5)c(=O)c4s3)cc(C)c2n1 [Compound 239, 6-(2,8-dimethylimidazo[1,2-b]pyridazin-6-yl)-3-(1-methylpiperidin-4-yl)thieno[3,2-d]pyrimidin-4(3H)-one] | 1000 to 10000 nM |
| 100 to 1000 nM | 100 to 1000 nM | Cc1cn2cc(-c3nc4sc(C5CCNCC5)cc4c(=O)[nH]3)cc(F)c2n1 [Compound 250, 2-(8-fluoro-2-methylimidazo[1,2-a]pyridin-6-yl)-6-(piperidin-4-yl)thieno[2,3-d]pyrimidin-4(3H)-one] | 100 to 1000 nM |
| 1000 to 10000 nM | 1000 to 10000 nM | Cn1cc2cc(-c3nc4ncn(C5CCNCC5)c(=O)c4s3)c(O)cc2n1 [Compound 253, 2-(6-hydroxy-2-methyl-2H-indazol-5-yl)-6-(piperidin-4-yl)thiazolo[4,5-d]pyrimidin-7(6H)-one, hydrochloride] | > 10000 nM |
| 100 to 1000 nM | 1000 to 10000 nM | Cn1cc2cc(-c3cc4ncn(C5CCNCC5)c(=O)c4s3)cc(C#N)c2n1 [Compound 259] | 1000 to 10000 nM |
| 100 to 1000 nM | 1000 to 10000 nM | Cc1cn2cc(-c3cc4ncn(C5CCNCC5)c(=O)c4s3)cc(C)c2n1 [Compound 261] | 1000 to 10000 nM |
| 100 to 1000 nM | 100 to 1000 nM | Cc1cn2nc(-c3cc4ncn(C5CCNCC5)c(=O)c4s3)cc2c(C)n1 [Compound 262] | 100 to 1000 nM |
| 1000 to 10000 nM | 1000 to 10000 nM | COc1cc(-c2cc3ncn(C4CCNCC4)c(=O)c3s2)ccn1 [Compound 263] | 1000 to 10000 nM |
| > 10000 nM | > 10000 nM | Cc1cn2nc(-c3nc4sc(N5CCN(C)CC5)nc4c(=O)[nH]3)cc2c(C)n1 [Compound 268] | > 10000 nM |
| 100 to 1000 nM | 100 to 1000 nM | Cc1cn2cc(-c3cc4ncn(N5CCNCC5)c(=O)c4s3)cc(F)c2n1 [Compound 269, 6-{8-fluoro-2-methylimidazo[1,2-a]pyridin-6-yl}-3-(piperazin-1-yl)thieno[3,2-d]pyrimidin-4-one] | 100 to 1000 nM |
| 100 to 1000 nM | 100 to 1000 nM | Cc1cn2cc(-c3cc4ncn(C5CCCNCC5)c(=O)c4s3)cc(F)c2n1 (stereo not drawn) [Compound 275, 3-(azepan-4-yl)-6-{8-fluoro-2-methylimidazo[1,2-a]pyridin-6-yl}thieno[3,2-d]pyrimidin-4-one] | 100 to 1000 nM |
| 100 to 1000 nM | 100 to 1000 nM | Cc1cn2cc(-c3cc4ncn(C5=CCNCC5)c(=O)c4s3)cc(F)c2n1 [Compound 276, 6-{8-fluoro-2-methylimidazo[1,2-a]pyridin-6-yl}-3-(1,2,3,6-tetrahydropyridin-4-yl)thieno[3,2-d]pyrimidin-4-one] | 100 to 1000 nM |
| > 10000 nM | > 10000 nM | Cc1cn2cc(-c3cc4ncn(C5CNCCC5=O)c(=O)c4s3)cc(F)c2n1 (stereo not drawn) [Compound 279, 3-(6-{8-fluoro-2-methylimidazo[1,2-a]pyridin-6-yl}-4-oxothieno [3,2-d]pyrimidin-3-yl)piperidin-4-one] | > 10000 nM |
